± gives the expanded uncertainty stated by the source.
Assay: molar heat capacity at constant volume
Conditions: Liquid, Vacuum adiabatic calorimetry

CCC [propane]
Conditions	molar heat capacity at constant volume [J/K/mol]
236.31 K, 2219 kPa	65.79 ± 1.3
238.69 K, 4211 kPa	66.23 ± 1.3
241.04 K, 6180 kPa	66.67 ± 1.3
243.36 K, 8127 kPa	66.58 ± 1.3
245.69 K, 10074 kPa	66.94 ± 1.3
250.09 K, 2085 kPa	67.6 ± 1.4
252.35 K, 3780 kPa	68.13 ± 1.4
254.59 K, 5476 kPa	68.13 ± 1.4
256.82 K, 7162 kPa	67.91 ± 1.4
259.03 K, 8839 kPa	68.48 ± 1.4
261.25 K, 10512 kPa	68.61 ± 1.4
264.41 K, 2430 kPa	69.1 ± 1.4
266.66 K, 3950 kPa	69.19 ± 1.4
268.92 K, 5488 kPa	70.24 ± 1.4
271.21 K, 7042 kPa	70.33 ± 1.4
273.5 K, 8593 kPa	70.2 ± 1.4
275.81 K, 10155 kPa	70.55 ± 1.4
283.73 K, 2629 kPa	71.61 ± 1.3
284.6 K, 1745 kPa	71.3 ± 1.5
286.92 K, 3057 kPa	71.88 ± 1.5
287.25 K, 4679 kPa	71.92 ± 1.5
289.25 K, 4373 kPa	72.23 ± 1.5
289.61 K, 6040 kPa	71.96 ± 1.4
291.57 K, 5681 kPa	72.32 ± 1.5
291.99 K, 7411 kPa	72.36 ± 1.4
293.9 K, 6981 kPa	72.98 ± 1.5
294.35 K, 8774 kPa	72.85 ± 1.5
296.28 K, 8309 kPa	73.15 ± 1.4
296.69 K, 10124 kPa	72.93 ± 1.5
298.66 K, 9622 kPa	73.2 ± 1.5
299 K, 11450 kPa	73.24 ± 1.5
300.98 K, 10901 kPa	74.35 ± 1.5
301.28 K, 12754 kPa	73.24 ± 1.5
303.33 K, 12177 kPa	74.65 ± 1.5
305.66 K, 13418 kPa	75.09 ± 1.5
306.13 K, 1912 kPa	74.7 ± 1.5
308.58 K, 3022 kPa	75.58 ± 1.5
311.04 K, 4140 kPa	75.62 ± 1.5
313.5 K, 5260 kPa	76.42 ± 1.5
315.96 K, 6379 kPa	76.55 ± 1.5
318.43 K, 7498 kPa	76.59 ± 1.5
320.89 K, 8615 kPa	77.52 ± 1.5
323.37 K, 9735 kPa	77.74 ± 1.5
325.84 K, 10852 kPa	78.18 ± 1.5
328.28 K, 11956 kPa	78.89 ± 1.5
330.71 K, 13052 kPa	79.33 ± 1.5
332.33 K, 10672 kPa	78.89 ± 1.5
334.81 K, 11722 kPa	79.81 ± 1.5
337.26 K, 12761 kPa	80.47 ± 1.5
339.76 K, 13813 kPa	80.65 ± 1.5

From the NIST ThermoML archive (doi:10.1016/j.jct.2018.05.022)
